Legend:
[1] = molecular target: T1, mouse RXR-α (Mus musculus, UniProt P28700); assay: RXRE (DR1) activation assay, HEK-293S cells with pRXRE-BLUE and RXR-α; assay type: cell-based; conditions: cotransfected with mouse RXR-α, 48 h
T1 construct: The RXR-α open reading frame was then subcloned into the pcDNA3.1 Directional TOPO vector; expressed in transfected cells; host or cells: N-acetylglucosaminyltransferase I-negative HEK-293S
T1 sequence (P28700 1-467): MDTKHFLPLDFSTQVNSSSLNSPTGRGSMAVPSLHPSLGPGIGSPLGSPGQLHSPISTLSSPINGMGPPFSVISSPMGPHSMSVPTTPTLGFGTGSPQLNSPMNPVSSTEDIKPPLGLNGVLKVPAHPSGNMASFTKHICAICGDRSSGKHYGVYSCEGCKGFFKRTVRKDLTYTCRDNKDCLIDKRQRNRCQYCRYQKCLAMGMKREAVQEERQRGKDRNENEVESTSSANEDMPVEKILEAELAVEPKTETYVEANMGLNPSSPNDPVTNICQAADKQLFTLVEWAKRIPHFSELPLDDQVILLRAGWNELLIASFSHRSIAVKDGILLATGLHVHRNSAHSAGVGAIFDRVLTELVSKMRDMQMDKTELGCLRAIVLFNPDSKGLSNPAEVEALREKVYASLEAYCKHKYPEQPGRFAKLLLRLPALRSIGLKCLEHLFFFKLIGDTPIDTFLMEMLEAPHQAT

[2] = Liver retinoids of Lrat-/- mice 3 h after gavage with all-trans-RA; assay type: in vivo, mouse; conditions: 3 h post-gavage
From the text: (§1) Metabolism of Retinoids in Vivo. All animal experiments employed procedures approved by the University of Washington and conformed to recommendations of the American Veterinary Medical Association Panel on Euthanasia and recommendations of the Association of Research for Vision and Ophthalmology. Animals were maintained on a 12-h light and 12-h dark cycle. All manipulations were done under dim red or infrared light (>560 nm). Most experiments used 6-12-week-old mice. Lrat−/− mice were genotyped as described previously. Batten, et al. J. Biol. Chem. 279:10422-10432, 2004. Animals were maintained on a control chow diet up to 1 h prior to oral gavage. The appropriate amount of all-trans-ROL palmitate, all-trans-DROL, or all-trans-RA was dissolved in vegetable oil and administered by oral gavage 3 h prior to analysis.
(§2) Analysis of Retinoids. Liver (1 g) from retinoid gavaged or naive mice was homogenized in 2 ml of 137 mM NaCl, 2.7 mM KCl, and 10 mM sodium phosphate (pH 7.4) for 30 s using a Polytron homogenizer. 10 μl of 5 M NaOH was added to 3 ml of the ethanolic extract, and the nonpolar retinoids were extracted using 5 ml of hexane. The extraction was repeated, and the organic phases were combined, dried under vacuum, resuspended in hexane, and examined by normal phase HPLC using a normal phase column (Beckman Ultrasphere Si 5μ, 4.6×250 mm). […] The HPLC elution conditions were […], 100% buffer A for 40 min, 100% buffer B for 10 min, and 10 min equilibration in buffer A. The elution profiles of RA and DRA were monitored using an online diode array detector set at 350 and 290 nm, respectively. […] The measured area of absorbance was converted to picomoles based on a calibration of the HPLC columns using a known amount of all-trans-RA or all-trans-ROL (Sigma) and all-trans-DROL or all-trans-DRA (synthetic standards). The extraction efficiency was monitored by spiking a tissue sample with [^3H]RA (PerkinElmer Life Sciences) and monitoring the radioactivity recovered from the HPLC column. […]

[3] = Liver retinoids of Lrat-/- mice 3 h after gavage with all-trans-DROL; assay type: in vivo, mouse; conditions: 3 h post-gavage
From the text: as §1, §2

[4] = molecular target: T2, LRAT (Mus musculus, UniProt Q9JI60); assay: Esterification assay, RPE microsomes and HEKK-LRAT cell homogenate; assay type: biochemical; conditions: 10 min, 37° C.
T2 construct: For expression Lrat coding region was amplified using the primers; expressed in transfected cells; membrane homogenate
T2 sequence (Q9JI60 1-231): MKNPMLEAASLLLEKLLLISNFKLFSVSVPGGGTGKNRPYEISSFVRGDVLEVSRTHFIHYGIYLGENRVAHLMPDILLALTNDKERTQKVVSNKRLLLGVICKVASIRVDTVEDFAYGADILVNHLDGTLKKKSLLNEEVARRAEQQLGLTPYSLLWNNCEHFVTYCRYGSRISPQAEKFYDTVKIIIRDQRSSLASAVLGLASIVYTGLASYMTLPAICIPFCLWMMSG
From the text: Inducible-Expression Of LRAT Protein in HEKK Cells. Mouse Lrat cDNA was cloned as described elsewhere. For expression Lrat coding region was amplified using the primers: 5′-[…]-3′ (SEQ ID NO: 11) and […] (SEQ ID NO: 12). The PCR product was ligated into the pCR-Blunt II-TOPO vector (Invitrogen) and then subcloned into the EcoRI site of pCDNA4/TO. TetR-expressing HEKK cells were transfected with the pCDNA4/TO-Lrat construct and selected with zeocin. Stable clones were verified for expression of Lrat protein using the anti-LRAT monoclonal antibody described elsewhere (2).
Esterification assay of all-trans-retinol and all-trans-13,14-dihydroretinol. HEKK-LRAT cells were homogenized in 250 mM sucrose, 10 mM Tris-HCl with the aid of a douncer. RPE microsomes were prepared as previously described. Stecher, et al. J Biol Chem 274:8577-8585, 1999. A substrate solution, 2 μL of 1 mM stock in DMF, was added to a 1.5 ml Eppendorf tube containing 20 μL of 10% BSA and 20 μL of UV-treated RPE microsomes or 100 μL of membrane homogenate of HEKK-LRAT cells and 10 mM BTP (pH 7.5) buffer to a total volume of 200 μL. […] Then 100 μL of the hexane extract was analyzed by normal-phase HPLC, using first 0.5% ethyl acetate in hexane for 10 min to separate retinyl esters and then 20% ethyl acetate in hexane for an additional 10 min to separate retinols. Elution was monitored at 290 nm and 325 nm.

Compound	Activation of RXR-mediated transcription (DR1 elements) [1]	Formation in liver after gavage with all-trans-RA [2]	Level in liver after gavage with all-trans-DROL [3]	Esterification by LRAT (substrate activity) [4]
CC1=C(/C=C/C(C)=C/C=C/C(C)CC(=O)O)C(C)(C)CCC1 (stereo not drawn) [all-trans-DRA, all-trans-13,14-dihydroretinoic acid]	very weak RXR activator	no evidence	significant levels	–
CC1=C(/C=C/C(C)=C/C=C/C(C)CCO)C(C)(C)CCC1 (stereo not drawn) [all-trans-DROL, all-trans-13,14-dihydroretinol]	–	–	–	as good a substrate for LRAT as all-trans-retinol
